According to the NIST ThermoML archive (doi:10.1021/acs.jced.7b00712):

Conditions: Brillouin light scattering

CCCCCCCC [octane]
Conditions | speed of sound [m/s]
573.03 K, 7000 kPa, Liquid | 341
573.05 K, 4000 kPa, Fluid (supercritical or subcritical phases) | 228.1
573.37 K, 10000 kPa, Liquid | 414
573.6 K, 12000 kPa, Liquid | 454.4
573.69 K, 3500 kPa, Fluid (supercritical or subcritical phases) | 189
573.8 K, 3000 kPa, Fluid (supercritical or subcritical phases) | 135.4
573.9 K, 4500 kPa, Fluid (supercritical or subcritical phases) | 250.4
575.02 K, 4000 kPa, Fluid (supercritical or subcritical phases) | 217.1
575.57 K, 7000 kPa, Liquid | 332.6
576.28 K, 10000 kPa, Liquid | 408.7
576.53 K, 12000 kPa, Liquid | 451.3
577.56 K, 3000 kPa, Fluid (supercritical or subcritical phases) | 110.1
577.56 K, 4500 kPa, Fluid (supercritical or subcritical phases) | 236.5
577.86 K, 3500 kPa, Fluid (supercritical or subcritical phases) | 168.5
578.92 K, 7000 kPa, Liquid | 323.1
579.05 K, 4000 kPa, Fluid (supercritical or subcritical phases) | 198.3
579.36 K, 10000 kPa, Liquid | 400.8
579.57 K, 12000 kPa, Liquid | 444.1
582.19 K, 3000 kPa, Fluid (supercritical or subcritical phases) | 86.9
582.61 K, 3500 kPa, Fluid (supercritical or subcritical phases) | 144.9
583.28 K, 4500 kPa, Fluid (supercritical or subcritical phases) | 215.8
583.76 K, 4000 kPa, Fluid (supercritical or subcritical phases) | 181
584.07 K, 5000 kPa, Fluid (supercritical or subcritical phases) | 239.2
584.52 K, 6000 kPa, Fluid (supercritical or subcritical phases) | 280.5
584.97 K, 7000 kPa, Fluid (supercritical or subcritical phases) | 314.5
585.27 K, 8000 kPa, Fluid (supercritical or subcritical phases) | 351.8
585.51 K, 9000 kPa, Fluid (supercritical or subcritical phases) | 367.9
585.79 K, 10000 kPa, Fluid (supercritical or subcritical phases) | 392.1
585.88 K, 3000 kPa, Fluid (supercritical or subcritical phases) | 88.4
586.85 K, 3500 kPa, Fluid (supercritical or subcritical phases) | 124.2
587.72 K, 4500 kPa, Fluid (supercritical or subcritical phases) | 200.5
588.01 K, 4000 kPa, Fluid (supercritical or subcritical phases) | 166.2
588.39 K, 5000 kPa, Fluid (supercritical or subcritical phases) | 226.1
588.83 K, 6000 kPa, Fluid (supercritical or subcritical phases) | 270.2
589.14 K, 7000 kPa, Fluid (supercritical or subcritical phases) | 302.3
589.41 K, 8000 kPa, Fluid (supercritical or subcritical phases) | 337
589.67 K, 9000 kPa, Fluid (supercritical or subcritical phases) | 358.4
589.68 K, 3000 kPa, Fluid (supercritical or subcritical phases) | 93.7
589.93 K, 10000 kPa, Fluid (supercritical or subcritical phases) | 385.1
591.09 K, 3500 kPa, Fluid (supercritical or subcritical phases) | 108.6
591.69 K, 4500 kPa, Fluid (supercritical or subcritical phases) | 186.7
593.97 K, 5000 kPa, Fluid (supercritical or subcritical phases) | 206.7
594.05 K, 4000 kPa, Fluid (supercritical or subcritical phases) | 140.2
594.09 K, 6000 kPa, Fluid (supercritical or subcritical phases) | 255.1
594.28 K, 7000 kPa, Fluid (supercritical or subcritical phases) | 290.8
594.52 K, 8000 kPa, Fluid (supercritical or subcritical phases) | 322.3
594.74 K, 9000 kPa, Fluid (supercritical or subcritical phases) | 346.5
594.9 K, 3000 kPa, Fluid (supercritical or subcritical phases) | 102.1
594.94 K, 10000 kPa, Fluid (supercritical or subcritical phases) | 374.1
596.02 K, 3500 kPa, Fluid (supercritical or subcritical phases) | 100.7
597.28 K, 4500 kPa, Fluid (supercritical or subcritical phases) | 170.5
598.63 K, 4000 kPa, Fluid (supercritical or subcritical phases) | 125.5
599.12 K, 3000 kPa, Fluid (supercritical or subcritical phases) | 108.9
599.17 K, 5000 kPa, Fluid (supercritical or subcritical phases) | 192.7
599.18 K, 6000 kPa, Fluid (supercritical or subcritical phases) | 241.2
599.55 K, 7000 kPa, Fluid (supercritical or subcritical phases) | 276.6
599.72 K, 8000 kPa, Fluid (supercritical or subcritical phases) | 309.6
599.76 K, 3500 kPa, Fluid (supercritical or subcritical phases) | 95.6
600 K, 9000 kPa, Fluid (supercritical or subcritical phases) | 334
601 K, 10000 kPa, Fluid (supercritical or subcritical phases) | 358.1
601.1 K, 4500 kPa, Fluid (supercritical or subcritical phases) | 159.7
602.47 K, 4000 kPa, Fluid (supercritical or subcritical phases) | 114.3
603.01 K, 5000 kPa, Fluid (supercritical or subcritical phases) | 180.4
603.24 K, 6000 kPa, Fluid (supercritical or subcritical phases) | 226.2
603.85 K, 8000 kPa, Fluid (supercritical or subcritical phases) | 299
604.21 K, 9000 kPa, Fluid (supercritical or subcritical phases) | 324.3
605.28 K, 3000 kPa, Fluid (supercritical or subcritical phases) | 116.6
605.73 K, 3500 kPa, Fluid (supercritical or subcritical phases) | 94.8
606.87 K, 4000 kPa, Fluid (supercritical or subcritical phases) | 111.1
607.11 K, 4500 kPa, Fluid (supercritical or subcritical phases) | 144.8
607.61 K, 5000 kPa, Fluid (supercritical or subcritical phases) | 169.3
607.97 K, 6000 kPa, Fluid (supercritical or subcritical phases) | 215.3
608.4 K, 7000 kPa, Fluid (supercritical or subcritical phases) | 254.8
608.86 K, 8000 kPa, Fluid (supercritical or subcritical phases) | 285.3
609.24 K, 9000 kPa, Fluid (supercritical or subcritical phases) | 312.3
609.54 K, 10000 kPa, Fluid (supercritical or subcritical phases) | 340.1
610.17 K, 3000 kPa, Fluid (supercritical or subcritical phases) | 124.3
610.28 K, 3500 kPa, Fluid (supercritical or subcritical phases) | 103.2
611.94 K, 4500 kPa, Fluid (supercritical or subcritical phases) | 133.3
612.5 K, 4000 kPa, Fluid (supercritical or subcritical phases) | 108.7
613.58 K, 5000 kPa, Fluid (supercritical or subcritical phases) | 153.7
613.8 K, 6000 kPa, Fluid (supercritical or subcritical phases) | 204.8
614.19 K, 7000 kPa, Fluid (supercritical or subcritical phases) | 242.3
614.65 K, 8000 kPa, Fluid (supercritical or subcritical phases) | 273.2
614.76 K, 3000 kPa, Fluid (supercritical or subcritical phases) | 129.2
614.83 K, 3500 kPa, Fluid (supercritical or subcritical phases) | 111.5
615.18 K, 9000 kPa, Fluid (supercritical or subcritical phases) | 302
616.02 K, 4500 kPa, Fluid (supercritical or subcritical phases) | 128.5
616.33 K, 5000 kPa, Fluid (supercritical or subcritical phases) | 148.3
617.46 K, 4000 kPa, Fluid (supercritical or subcritical phases) | 110.4
619.43 K, 3000 kPa, Fluid (supercritical or subcritical phases) | 134.1
619.62 K, 3500 kPa, Fluid (supercritical or subcritical phases) | 119
619.76 K, 4500 kPa, Fluid (supercritical or subcritical phases) | 125.2
620.31 K, 5000 kPa, Fluid (supercritical or subcritical phases) | 144
622 K, 4000 kPa, Fluid (supercritical or subcritical phases) | 112.6
623.42 K, 5000 kPa, Fluid (supercritical or subcritical phases) | 141.6
623.5 K, 6000 kPa, Fluid (supercritical or subcritical phases) | 184.3
623.84 K, 7000 kPa, Fluid (supercritical or subcritical phases) | 224.1
624.5 K, 8000 kPa, Fluid (supercritical or subcritical phases) | 254.1
624.55 K, 3500 kPa, Fluid (supercritical or subcritical phases) | 124.9
624.66 K, 4000 kPa, Fluid (supercritical or subcritical phases) | 114.2
624.87 K, 9000 kPa, Fluid (supercritical or subcritical phases) | 283.1
624.89 K, 3000 kPa, Fluid (supercritical or subcritical phases) | 139.4
625 K, 4500 kPa, Fluid (supercritical or subcritical phases) | 125.1
625.29 K, 5000 kPa, Fluid (supercritical or subcritical phases) | 139.2
628.69 K, 4000 kPa, Fluid (supercritical or subcritical phases) | 120.4
629.77 K, 5000 kPa, Fluid (supercritical or subcritical phases) | 137.3
629.96 K, 3500 kPa, Fluid (supercritical or subcritical phases) | 132.1
630.15 K, 3000 kPa, Fluid (supercritical or subcritical phases) | 144.3
630.45 K, 4500 kPa, Fluid (supercritical or subcritical phases) | 126.6
632.06 K, 4000 kPa, Fluid (supercritical or subcritical phases) | 124.2
633.13 K, 5000 kPa, Fluid (supercritical or subcritical phases) | 137.6
633.62 K, 6000 kPa, Fluid (supercritical or subcritical phases) | 169.8
633.94 K, 7000 kPa, Fluid (supercritical or subcritical phases) | 204.8
634.48 K, 8000 kPa, Fluid (supercritical or subcritical phases) | 240.7
635.95 K, 3000 kPa, Fluid (supercritical or subcritical phases) | 149.3
635.97 K, 3500 kPa, Fluid (supercritical or subcritical phases) | 140
636.07 K, 4000 kPa, Fluid (supercritical or subcritical phases) | 131.6
636.31 K, 4500 kPa, Fluid (supercritical or subcritical phases) | 132
637.58 K, 5000 kPa, Fluid (supercritical or subcritical phases) | 140.4
638.73 K, 3500 kPa, Fluid (supercritical or subcritical phases) | 142.4
638.9 K, 3000 kPa, Fluid (supercritical or subcritical phases) | 152.4
639.03 K, 4500 kPa, Fluid (supercritical or subcritical phases) | 134.5
642.09 K, 5000 kPa, Fluid (supercritical or subcritical phases) | 144.1
642.28 K, 6000 kPa, Fluid (supercritical or subcritical phases) | 160.5
642.66 K, 4000 kPa, Fluid (supercritical or subcritical phases) | 142.7
642.75 K, 7000 kPa, Fluid (supercritical or subcritical phases) | 194.7
643.16 K, 8000 kPa, Fluid (supercritical or subcritical phases) | 229.4
